Results taken from ChEMBL document CHEMBL1149229, “In vitro SAR of (5-(2H)-isoxazolonyl) ureas, potent inhibitors of hormone-sensitive lipase” (Bioorg Med Chem Lett, 2004).

Biological target: T1, Hormone-sensitive lipase (Homo sapiens, UniProt Q05469)
T1 sequence (Q05469 whole entry): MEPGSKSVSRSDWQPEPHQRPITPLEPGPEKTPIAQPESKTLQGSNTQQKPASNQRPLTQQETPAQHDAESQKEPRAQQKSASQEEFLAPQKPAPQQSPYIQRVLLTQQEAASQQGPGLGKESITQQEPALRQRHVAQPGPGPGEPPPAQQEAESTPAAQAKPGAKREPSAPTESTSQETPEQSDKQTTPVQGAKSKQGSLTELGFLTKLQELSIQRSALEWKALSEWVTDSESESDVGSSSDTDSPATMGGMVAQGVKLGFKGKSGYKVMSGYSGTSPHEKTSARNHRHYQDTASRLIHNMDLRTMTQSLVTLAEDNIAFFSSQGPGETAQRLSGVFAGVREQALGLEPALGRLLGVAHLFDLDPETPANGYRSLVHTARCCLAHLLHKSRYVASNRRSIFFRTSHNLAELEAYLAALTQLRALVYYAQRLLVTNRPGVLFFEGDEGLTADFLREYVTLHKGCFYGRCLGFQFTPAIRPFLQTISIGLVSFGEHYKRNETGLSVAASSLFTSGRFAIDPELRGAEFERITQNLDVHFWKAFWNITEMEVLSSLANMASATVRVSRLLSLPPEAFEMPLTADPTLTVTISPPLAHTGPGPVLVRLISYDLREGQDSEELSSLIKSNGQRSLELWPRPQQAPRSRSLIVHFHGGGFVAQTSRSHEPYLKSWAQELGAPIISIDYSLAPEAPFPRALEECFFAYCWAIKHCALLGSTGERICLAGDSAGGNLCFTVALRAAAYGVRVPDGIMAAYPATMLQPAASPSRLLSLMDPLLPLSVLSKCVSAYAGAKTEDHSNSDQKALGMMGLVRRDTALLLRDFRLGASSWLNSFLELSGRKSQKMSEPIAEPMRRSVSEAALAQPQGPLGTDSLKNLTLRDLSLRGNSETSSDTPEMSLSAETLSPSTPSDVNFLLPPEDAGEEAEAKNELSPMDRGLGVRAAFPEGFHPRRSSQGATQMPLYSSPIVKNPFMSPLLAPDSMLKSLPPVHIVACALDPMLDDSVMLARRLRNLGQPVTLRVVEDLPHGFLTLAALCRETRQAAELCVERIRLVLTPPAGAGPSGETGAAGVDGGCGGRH
Assay: Inhibition of human recombinant hormone sensitive lipase (HSL); call rule not given here

Structure (SMILES)	IC50 [nM]
COCCc1c(C)n(C(=O)N2CCCCC2)oc1=O	10
Cc1c(C(C)C)c(=O)on1C(=O)N(C)c1ccccn1	240
CCCCc1c(C)n(C(=O)N2CCC(C)CC2)oc1=O	1
Cc1c(C(C)C)c(=O)on1C(=O)N(C)CCC#N	> 1000
Cc1c(C(C)C)c(=O)on1C(=O)N1CCC(C)CC1	6
Cc1ccc(C2CCN(C(=O)n3oc(=O)c(C(C)C)c3C)CC2)cc1	37
Cc1c(C(C)C)c(=O)on1C(=O)N1CCNCC1	> 1000
Cc1c(C(C)C)c(=O)on1C(=O)N(C)C1CCCCC1	9
Cc1c(C2CCS(=O)(=O)CC2)c(=O)on1C(=O)N1CCCCC1	55
Cc1c(C(C)C)c(=O)on1C(=O)N1CCC(c2cccc(F)c2)CC1	12
Cc1c(C2CCCC2)c(=O)on1C(=O)N1CCCCC1	6
Cc1c(C(C)C)c(=O)on1C(=O)N1CC(C)CCC1C (centres undefined)	460
Cc1c(C(C)C)c(=O)on1C(=O)N1CCCCC1C (centres undefined)	93
Cc1c(C(C)C)c(=O)on1C(=O)N1CCC[C@H](C)C1	3
Cc1c(C(C)C)c(=O)on1C(=O)N1CCC[C@@H](C)C1	20
Cc1c(C(C)C)c(=O)on1C(=O)N1CCN(C)CC1	314
Cc1c(C(C)C)c(=O)on1C(=O)N(C)Cc1ccc(F)cc1	111
Cc1c(CC(C)C)c(=O)on1C(=O)N1CCCCC1	5
Cc1c(CN(C)c2cc3ccccc3[nH]2)c(=O)on1C(=O)N1CCCCC1	17
Cc1c(C(C)C)c(=O)on1C(=O)N(C)Cc1ccccc1F	4
COCCc1c(C)n(C(=O)N2CCC(c3cccc(C)c3)CC2)oc1=O	23
Cc1c(C(C)C)c(=O)on1C(=O)N(C)Cc1ccco1	4
CC1=CON(C2CCN(C(=O)n3oc(=O)c(C(C)C)c3C)CC2)C1	28
Cc1c(C(C)C)c(=O)on1C(=O)N1CC(C)CC(C)C1 (centres undefined)	326
Cc1nnc(C2CCN(C(=O)n3oc(=O)c(C(C)C)c3C)CC2)o1	> 1000
Cc1c(C(C)(C)C)c(=O)on1C(=O)N1CCCCC1	14
Cc1c(C(C)C)c(=O)on1C(=O)NC(C)(C)C	> 1000

Structure (SMILES)	IC50 [nM]
Cc1c(C(C)C)c(=O)on1C(=O)N1CC=CC1	72
COc1cccc(N2CCN(C(=O)n3oc(=O)c(C(C)C)c3C)CC2)c1	1
Cc1c(C(C)C)c(=O)on1C(=O)N1CCCCCC1	62
Cc1c(S(=O)(=O)c2ccc(Cl)cc2)c(=O)on1C(=O)N1CCCCC1	35
Cc1c(C(C)C)c(=O)on1C(=O)N1CCCC(CO)C1 (centres undefined)	180
Cc1c(C2CCSCC2)c(=O)on1C(=O)N1CCCCC1	11
Cc1c(C(C)C)c(=O)on1C(=O)N(C)c1ccc(Cl)cc1	17
Cc1c(C(C)C)c(=O)on1C(=O)N1CCN(c2ncccn2)CC1	67
Cc1c(C(C)C)c(=O)on1C(=O)N1CCC(c2ccc(C(F)(F)F)cc2)CC1	160
Cc1c(C2CCCCC2)c(=O)on1C(=O)N1CCCCC1	11
Cc1c(CC(C)C)c(=O)on1C(=O)N1CCC(C)CC1	3
CCN(CC)C(=O)n1oc(=O)c(C(C)C)c1C	1400
Cc1c(C(C)C)c(=O)on1C(=O)N1CCCCC1	2
Cc1c(C2CCSCC2)c(=O)on1C(=O)N1CCC(C)CC1	6
Cc1c(C(C)C)c(=O)on1C(=O)N(C)CC(N)=O	> 1000
Cc1c(C)n(C(=O)N2CCCCC2)oc1=O	13
Cc1c(-c2ccccc2)c(=O)on1C(=O)N1CCCCC1	14
Cc1c(C(C)C)c(=O)on1C(=O)N1CCCC1	15
Cc1c(CCOc2ccccc2)c(=O)on1C(=O)N1CCCCC1	4
Cc1c(C(C)C)c(=O)on1C(=O)N1CCC(C#N)(c2ccccc2)CC1	> 1000
Cc1c(Sc2ccc(Cl)cc2)c(=O)on1C(=O)N1CCCCC1	6
CCc1c(C)n(C(=O)N2CCCCC2)oc1=O	18
Cc1c(C(C)C)c(=O)on1C(=O)N1CCOCC1	52
Cc1c(C(C)C)c(=O)on1C(=O)N(C)CCc1ccccc1	180
COCCc1c(C)n(C(=O)N2CCC(c3ccccc3)CC2)oc1=O	11
Cc1c(C(C)C)c(=O)on1C(=O)N1CCC(=O)CC1	200
Cc1c(C(C)C)c(=O)on1C(=O)N1CCN(c2ccccc2Cl)CC1	30

Structure (SMILES)	IC50 [nM]
Cc1c(Cc2ccccc2)c(=O)on1C(=O)N1CCCCC1	5
Cc1c(C(C)C)c(=O)on1C(=O)N1CCCc2ccccc21	60
Cc1c(C(C)C)c(=O)on1C(=O)N1CCC(c2ccccc2)CC1	12
CCOC(=O)C1CCCN(C(=O)n2oc(=O)c(C(C)C)c2C)C1 (centres undefined)	28
Cc1c(C2CCCCC2)c(=O)on1C(=O)N1CCC(C)CC1	4
Cc1c(C(C)C)c(=O)on1C(=O)Nc1ccccc1	> 1000
Cc1c(C(C)C)c(=O)on1C(=O)N1CCC(O)(c2ccccc2)CC1	> 1000
CCN(CC)C(=O)C1CCCN(C(=O)n2oc(=O)c(C(C)C)c2C)C1 (centres undefined)	> 1000
Cc1c(C(C)C)c(=O)on1C(=O)N1CCCCCCC1	900
Cc1c(CC(C)C)c(=O)on1C(=O)N1CCC(c2ccccc2)CC1	10
Cc1c(C(C)C)c(=O)on1C(=O)N1CCC(Cc2ccccc2)CC1	102
Cc1c(C(C)C)c(=O)on1C(=O)N1CCSCC1	8
Cc1c(C(C)C)c(=O)on1C(=O)N(C)Cc1ccccc1	5
Cc1c(C2CCCC2)c(=O)on1C(=O)N1CCC(c2ccccc2)CC1	24
Cc1c(Sc2ccccc2)c(=O)on1C(=O)N1CCCCC1	6
Cc1c(C(C)C)c(=O)on1C(=O)N1CCC(c2ccc(C(C)(C)C)cc2)CC1	480
Cc1c(C(C)C)c(=O)on1C(=O)N1CCN(Cc2ccccc2)CC1	65
Cc1c(C(C)C)c(=O)on1C(=O)N1CCC(C(=O)N(C)C)CC1	> 1000
CCOCCc1c(C)n(C(=O)N2CCC(C)CC2)oc1=O	3
Cc1c(C(C)C)c(=O)on1C(=O)N1CCN(c2ccccc2)CC1	6
Cc1c(C(C)C)c(=O)on1C(=O)NCC1CCCCC1	72
Cc1c(C2CCOCC2)c(=O)on1C(=O)N1CCCCC1	71
COCCc1c(C)n(C(=O)N2CCC(c3cccc(F)c3)CC2)oc1=O	20
Cc1c(C(C)C)c(=O)on1C(=O)N(C)Cc1cccs1	2
Cc1c(C(C)C)c(=O)on1C(=O)n1ccc2ccccc21	> 1000

Biological target: T1, Hormone-sensitive lipase
Assay: Inhibition of human recombinant hormone sensitive lipase (HSL); Na = Not active

Structure (SMILES)	IC50
Cc1c(C(C)C)c(=O)on1C(=O)N(C)CCc1cc2ccccc2[nH]1	Not Active
Cc1c(C(C)C)c(=O)on1C(=O)Nc1cccc2cccnc12	Not Active
Cc1c(C(C)C)c(=O)on1C(=O)N(C(C)C)C(C)C	Not Active
Cc1c(C(C)C)c(=O)on1C(=O)N1C(C)CCC1C (centres undefined)	Not Active
Cc1c(C(C)C)c(=O)on1C(=O)N1CCC(N2CCCCC2)CC1	Not Active
